# How the values were obtained:
# [1] = target: T1, scavenger receptor B1 (SR-B1) (Mus musculus, UniProt Q61009); assay: SR-B1 inhibitors in RGSKI mice: survival of transfused human RBCs in peripheral blood; type: in vivo; conditions: 2 mg per mouse, one hour before human RBC infusion
# T1 construct: endogenous in cells
# T1 sequence (Q61009 1-509): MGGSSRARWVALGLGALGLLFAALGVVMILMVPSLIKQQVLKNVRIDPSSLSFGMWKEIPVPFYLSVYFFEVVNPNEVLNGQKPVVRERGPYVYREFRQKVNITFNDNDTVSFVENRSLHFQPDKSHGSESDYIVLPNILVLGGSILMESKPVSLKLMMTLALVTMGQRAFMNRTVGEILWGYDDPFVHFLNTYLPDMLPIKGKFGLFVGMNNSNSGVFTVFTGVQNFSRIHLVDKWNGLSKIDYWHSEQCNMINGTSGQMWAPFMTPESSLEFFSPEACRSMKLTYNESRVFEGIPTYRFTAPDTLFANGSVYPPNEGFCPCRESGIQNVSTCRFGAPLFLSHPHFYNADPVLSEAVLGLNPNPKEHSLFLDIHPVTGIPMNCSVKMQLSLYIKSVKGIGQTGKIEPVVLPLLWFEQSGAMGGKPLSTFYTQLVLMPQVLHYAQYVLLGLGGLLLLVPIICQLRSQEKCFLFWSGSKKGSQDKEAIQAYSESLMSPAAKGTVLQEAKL
# Method: (§1) Inhibitor of scavenger receptor B1 can protect human RBCs in the mouse system. RGSKI mice were treated with scavenger receptor B1 named BLT-1 (2 mg per mouse). One hour after treatment, mice were infused with human RBCs and peripheral blood was collected at indicated time points. Control: PBS.
# as §1, with “ITX7650 or ITX5061 (1” for “BLT-1 (2”, “mouse) obtained from iTherX.” for “mouse).”
# Fah-KO mouse hepatocytes = assay: NTBC rescue of Fah-KO mouse hepatocytes; type: in vivo; conditions: NTBC in drinking water
# Text: MISTRGFah are viable, fertile, and can be bred as homozygotes when maintained on drinking water supplemented with 2-(2-nitro-4-trifluoromethylbenzoyl)-1,3-cyclohexanedione (NTBC), that blocks tyrosine metabolism upstream of FAH and prevents buildup of hepatotoxic metabolites. At 8 weeks of age, MISTRGFah. mice were implanted with commercially available, adult human hepatocytes (HuHep) via direct injection into the splenic vein, followed by gradual withdrawal of NTBC water. Regulated buildup of intracellular FA results in death of murine Fah^−/− hepatocytes and regeneration with HuHep with up to 90% repopulation by HuHep (Azuma H et al., 2007, Nature Biotechnology, 25:903-910). When plasma human albumin levels reached 2 mg/dL (FIG. 11A), indicative of significant (˜80%) HuHep repopulation, HuHepMISTRGFah mice were sublethally (80cGy) irradiated and each mouse was engrafted with […] fetal liver (FL) derived CD34+ cells. MISTRG (80cGy), MISTRGW41 and NSGW41 (no irrad) served as controls to assess the effects of human liver vs W41 mutation vs cytokine humanization on erythropoiesis and huRBC in circulation. 10 weeks post transplantation mice were analyzed for engraftment and. specifically erythroid maturation and PB huRBC.
# C3 and C5 complement = conditions: cited from earlier work
molecule,measurement,setting,value
CCCCCCC1CCCC1=NNC(N)=S (centres unmarked) [BLT-1],Protection of transfused human red blood cells in mouse periphery,[1],protected
"O=C1CCCC(=O)C1C(=O)c1ccc(C(F)(F)F)cc1[N+](=O)[O-] [NTBC, 2-(2-nitro-4-trifluoromethylbenzoyl)-1,3-cyclohexanedione]",Rescue of Fah-KO mouse hepatocytes,Fah-KO mouse hepatocytes,rescues the Fah-KO mouse hepatocytes from death
cobra venom factor,Maximum human RBC chimerism,C3 and C5 complement; CVF with concurrent liposomal clodronate,~3%
same,% of circulating huRBC,C3 and C5 complement; only in conjunction with liposomal clodronate in NOD/SCID mice,increased the % of circulating huRBC
same,huRBC survival,C3 and C5 complement; only when MΦs are depleted concurrently with liposomal clodronate,significantly prolonged

# — patent US20220354098A1, “Genetically Modified Non-Human Animals and Methods of Use Thereof” (YALE UNIVERSITY, priority 2019, published 2022)
